Results published in US20260076893A1, “SELF-FOAMING CLEANSING COMPOSITION” (Conopco, Inc., d/b/a UNILEVER, priority 2022, published 2026).

Legend:
[1] = DPPH scavenging method (antioxidation); type: biochemical; settings: 0.25%, positive control, dilution not given
Source text: To add antioxidation properties to the self-foaming cleansing composition, tocopherol (Vitamin E) can be added. Antioxidation can be measured using a DPPH scavenging method where DPPH (1,1-Diphenyl-2-picrylhydrazyl) is a stable free radical. On accepting hydrogen from a corresponding donor, its solutions lose a characteristic deep purple color and antiradical activity of tested formulations can be expressed as a percentage decrease of DPPH concentration. […] Accordingly, in a further aspect, the invention relates to the use of tocopherol in a composition according to the invention to provide anti-oxidant activity to the cleansing composition, preferably dose-dependent anti-oxidant activity. The invention relates further to the use of tocopherol to reduce free radicals in a cleansing composition according to the invention, preferably dose-dependent anti-oxidant activity. In a further embodiment, it may be preferred that the cleansing composition of the invention comprises tocopherol and moringa seed oil.
The antioxidant activity of the formulations in Samples 4 and 5 were tested using the DPPH scavenging method (1,1-Diphenyl-2-picrylhydrazyl). DPPH is a stable free radical. […] The antiradical activity of Samples 4 and 5 was expressed as a percentage decrease of DPPH concentration.

[2] = system: IL-1a; assay: Living skin equivalent assay, IL-1a; type: cell-based; settings: living skin equivalent after application of test solution
Experimental: (§1) In the following samples, compositions were made with varying levels of moringa seed oil and tested in a living skin equivalent assay. The base composition was tested with levels of 0.1% by weight, 0.2% by weight, and 0.3% by weight of moringa seed oil, based on the total weight of the self-foaming cleansing composition. The living skin equivalent assay study monitored gene expression of several markers after application of the test solutions to the living skin equivalent assay.
(§2) Comparative Example 1 was a non-treated control meaning no application on the skin model. Comparative Example 2 was another control where phosphate-buffered saline (PBS) was applied topically to the skin model.

[3] = system: CASP14; assay: Living skin equivalent assay, CASP14 gene expression; type: cell-based
Experimental: as §1, §2

[4] = system: AQP3; assay: Living skin equivalent assay, AQP3 gene expression; type: cell-based
Experimental: as §1, §2

Row | Molecule | % Reduction over DPPH reagent control [1] [%] | IL-1a [2] [pg/mL] | CASP14 (Fold change) [3] [Fold change] | AQP3 (Fold change) [4] [Fold change]
1 | O=C1O[C@H]([C@@H](O)CO)C(O)=C1O [Vitamin C] | 95.04 | – | – | –
2 | squalene monoperoxide [SQOOH] | – | 483.84 ± 11.42 | 0.54 ± 0.31 | 0.27 ± 0.04
